According to ChEMBL document CHEMBL1268825, “Inhibitory activity of four demethoxy fluorinated anthracycline analogs against five human-tumor cell lines” (2010):
≈ marks a conversion by molar mass, not a printed value. Calls of active or inactive are those of the source. No cut-off for these calls is given here.

Experiments:
Assay type in all cases: functional
A549 = test: Cytotoxicity against human A549 cells after 24 hrs by SRB assay; conditions: A549, 24 h, read-out: ED50 (the source's name)
[1] = (§1) Cytotoxicity against human RPMI cells after 24 hrs by SRB assay; conditions: read-out: ED50 (the source's name)
U-251 = test: Cytotoxicity against human U251 cells after 24 hrs by SRB assay; conditions: for EC50: U-251, 24 h, read-out: ED50 (the source's name)
MCF7 = test: Cytotoxicity against human MCF7 cells after 24 hrs by SRB assay; conditions: MCF7, 24 h, read-out: ED50 (the source's name)
HT-29 = test: Cytotoxicity against human HT-29 cells after 24 hrs by SRB assay; conditions: HT-29, 24 h, read-out: ED50 (the source's name)
RPMI = test: as §1

SMILES | EC50 (A549) | EC50 [1] | EC50 (U-251) | EC50 (MCF7) | EC50 (HT-29) | ED50 (RPMI) | ED50 (U-251)
COc1cccc2c1C(=O)c1c(O)c3c(c(O)c1C2=O)C[C@@](O)(C(=O)CO)C[C@@H]3O[C@H]1C[C@H](N)[C@H](O)[C@H](C)O1 [DOXORUBICIN] | 0.03 mg/L (≈ 0.0552 µM) | 0.02 mg/L (≈ 0.0368 µM) | 0.02 mg/L (≈ 0.0368 µM) | 0.03 mg/L (≈ 0.0552 µM) |  |  | 
CC(=O)O[C@H]1[C@@H](F)[C@H](O[C@H]2C[C@](O)(C(C)=O)Cc3c(O)c4c(c(O)c32)C(=O)c2ccccc2C4=O)O[C@@H](C)[C@H]1OC(C)=O | 0.07 mg/L (≈ 0.117 µM) | 0.05 mg/L (≈ 0.0833 µM) | 0.1 mg/L (≈ 0.167 µM) | 0.06 mg/L (≈ 0.0999 µM) | 0.001 mg/L (≈ 0.00167 µM) |  | 
C[C@@H]1O[C@@H](O[C@H]2C[C@](O)(C(=O)CBr)Cc3c(O)c4c(c(O)c32)C(=O)c2ccccc2C4=O)[C@H](F)[C@H](O)[C@@H]1O | 0.6 mg/L (≈ 1.01 µM) |  |  | 0.4 mg/L (≈ 0.672 µM) |  | inactive | inactive
CC(=O)[C@]1(O)Cc2c(O)c3c(c(O)c2[C@@H](O[C@@H]2O[C@@H](C)[C@@H](O)[C@@H](O)[C@H]2F)C1)C(=O)c1ccccc1C3=O | 0.008 mg/L (≈ 0.0155 µM) | 0.03 mg/L (≈ 0.0581 µM) | 0.04 mg/L (≈ 0.0774 µM) | 0.03 mg/L (≈ 0.0581 µM) |  |  | 
C[C@@H]1O[C@@H](O[C@H]2C[C@](O)(C(=O)CO)Cc3c(O)c4c(c(O)c32)C(=O)c2ccccc2C4=O)[C@H](F)[C@H](O)[C@@H]1O | 0.008 mg/L (≈ 0.015 µM) | 0.02 mg/L (≈ 0.0376 µM) | 0.02 mg/L (≈ 0.0376 µM) | 0.02 mg/L (≈ 0.0376 µM) | > 0.001 mg/L |  | 
